According to patent US11306078B2, “Piperidine CXCR7 receptor modulators” (IDORSIA PHARMACEUTICALS LTD., priority 2016, dated 2022):

Target: human chemokine receptor CXCR7 (Homo sapiens (Human), UniProt P25106)
Assay: Tango CXCR7-bla U2OS beta-arrestin recruitment assay (beta-lactamase reporter, FRET), antagonism of CXCL12/SDF1-α;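 further: compounds preincubated 15 min before CXCL12 addition, then 22 h at 37 °C, FRET emission ratio read with CCF4-AM substrate after 2 h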
Assay type: cell-based
Conditions: antagonistic effect on CXCR7; Tango CXCR7-bla U2OS cells, CXCL12/SDF1-α at its EC80

Chain of human chemokine receptor CXCR7 (P25106 whole entry): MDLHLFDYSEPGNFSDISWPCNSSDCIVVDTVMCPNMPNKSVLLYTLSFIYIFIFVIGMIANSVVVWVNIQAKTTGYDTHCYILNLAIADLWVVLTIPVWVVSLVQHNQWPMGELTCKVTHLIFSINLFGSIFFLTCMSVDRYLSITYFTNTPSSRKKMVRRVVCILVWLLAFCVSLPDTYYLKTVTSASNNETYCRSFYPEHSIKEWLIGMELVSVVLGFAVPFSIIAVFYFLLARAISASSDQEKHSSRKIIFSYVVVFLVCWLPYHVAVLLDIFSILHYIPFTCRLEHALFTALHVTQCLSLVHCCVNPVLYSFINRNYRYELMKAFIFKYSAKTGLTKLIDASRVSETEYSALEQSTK

SMILES	IC50 [µM]
COCC(C)(C)NC(=O)[C@@H]1CN(CC2CC2)CC[C@H]1NC(=O)c1cc(-c2c(F)cc(F)cc2F)on1 (single isomer, unassigned) [Example 1.113a, (3R*,4R*)-1-Cyclopropylmethyl-4-{[5-(2,4,6-trifluoro-phenyl)-isoxazole-3-carbonyl]-amino}-piperidine-3-carboxylic acid (2-methoxy-1,1-dimethyl-ethyl)-amide]	0.561
CC(C)(CC(F)(F)F)NC(=O)[C@@H]1CN(C2CCCCC2)CC[C@H]1NC(=O)c1cc(-c2ccc(F)cc2F)on1 [Example 1.08]	0.564
C[C@@H]1CCC[C@H]1N1CC[C@@H](NC(=O)c2cc(-c3c(F)cc(F)cc3F)on2)[C@H](C(=O)NC2(c3ccccn3)CC2)C1 (relative stereo) [Example 1.172, (3R*,4R*)-1-((1RS,2RS)-2-Methyl-cyclopentyl)-4-{[5-(2,4,6-trifluoro-phenyl)-isoxazole-3-carbonyl]-amino}-piperidine-3-carboxylic acid (1-pyridin-2-yl-cyclopropyl)-amide]	0.072
C[C@@H](NC(=O)[C@H]1CN(C2CCCCC2)CC[C@@H]1NC(=O)c1cn(-c2ccc(F)cc2F)nn1)c1ccccn1 (single isomer, unassigned) [Example 1.117a, (3S,4S)-1-Cyclohexyl-4-{[1-(2,4-difluoro-phenyl)-1H-[1,2,3]triazole-4-carbonyl]-amino}-piperidine-3-carboxylic acid ((R)-1-pyridin-2-yl-ethyl)-amide or (3R,4R)-1-Cyclohexyl-4-{[1-(2,4-difluoro-phenyl)-1H-[1,2,3]triazole-4-carbonyl]-amino}-piperidine-3-carboxylic acid ((R)-1-pyridin-2-yl-ethyl)-amide]	0.039
O=C(N[C@@H]1CCN(C2CCCCC2)C[C@H]1C(=O)NCCc1ccccc1Cl)c1cc(-c2ccc(F)cc2F)on1 (racemic) [Example 1.058, rac-(3R*,4R*)-1-Cyclohexyl-4-{[5-(2,4-difluoro-phenyl)-isoxazole-3-carbonyl]-amino}-piperidine-3-carboxylic acid [2-(2-chloro-phenyl)-ethyl]-amide]	0.001
O=C(N[C@H]1CCN(C2CC3CC3C2)C[C@@H]1C(=O)NC1(c2ncccn2)CC1)c1cc(-c2ccc(F)cc2F)on1 (stereo partly shown) [Example 2.094]	0.002
CC(CO)NC(=O)[C@@H]1CN(C2CCCCC2)CC[C@H]1NC(=O)c1cc(-c2ccc(F)cc2F)on1 (relative stereo) [Example 1.076, (3R*,4R*)-1-Cyclohexyl-4-{[5-(2,4-difluoro-phenyl)-isoxazole-3-carbonyl]-amino}-piperidine-3-carboxylic acid ((1RS)-2-hydroxy-1-methyl-ethyl)-amide]	0.604
C[C@@H](NC(=O)[C@@H]1CN(C2CCCC2)CC[C@H]1NC(=O)c1cn(-c2ccc(F)cc2F)nn1)c1cnccn1 (relative stereo) [Example 1.128, (3R*,4R*)-1-Cyclopentyl-4-{[1-(2,4-difluoro-phenyl)-1H-[1,2,3]triazole-4-carbonyl]-amino}-piperidine-3-carboxylic acid ((R)-1-pyrazin-2-yl-ethyl)-amide]	0.124
O=C(N[C@@H]1CCN(C2CCCC2)C[C@H]1C(=O)N1CCC1)c1cc(-c2c(F)cc(F)cc2F)on1 (racemic) [Example 1.106, rac-5-(2,4,6-Trifluoro-phenyl)-isoxazole-3-carboxylic acid [(3R*,4R*)-3-(azetidine-1-carbonyl)-1-cyclopentyl-piperidin-4-yl]-amide]	0.248
CN(C)C(=O)[C@@H]1CN(Cc2ccccc2)CC[C@H]1NC(=O)c1cc(-c2ccc(F)cc2F)on1 [Example 2.081]	0.118
C[C@@H]1CCC[C@H]1N1CC[C@@H](NC(=O)c2cn(-c3ccc(F)cc3F)nn2)[C@H](C(=O)N(C)C)C1 (relative stereo) [Example 1.098, (3R*,4R*)-4-{[1-(2,4-Difluoro-phenyl)-1H-[1,2,3]triazole-4-carbonyl]-amino}-1-((1RS,2RS)-2-Methyl-cyclopentyl)-piperidine-3-carboxylic acid dimethylamide]	0.276
CN(CCc1ccccc1)C(=O)[C@@H]1CN([C@@H]2CCCC[C@H]2O)CC[C@H]1NC(=O)c1cc(-c2ccc(F)cc2F)on1 [Example 2.05]	0.015
NC(=O)CNC(=O)[C@@H]1CN(C2CCCCC2)CC[C@H]1NC(=O)c1cc(-c2ccc(F)cc2F)on1 (racemic) [Example 1.014, rac-(3R*,4R*)-1-Cyclohexyl-4-{[5-(2,4-difluoro-phenyl)-isoxazole-3-carbonyl]-amino}-piperidine-3-carboxylic acid carbamoylmethyl-amide]	0.289
O=C(N[C@@H]1CCN(C2CCCCC2)C[C@H]1C(=O)NCc1nccs1)c1cc(-c2ccc(F)cc2F)on1 (racemic) [Example 1.051, rac-(3R*,4R*)-1-Cyclohexyl-4-{[5-(2,4-difluoro-phenyl)-isoxazole-3-carbonyl]-amino}-piperidine-3-carboxylic acid (thiazol-2-ylmethyl)-amide]	0.049
O=C(NC1CCN(CC2CC2)CC1C(=O)N1CCCC1c1ncccn1)c1cc(-c2ccc(F)cc2F)on1 (stereo not shown) [Example 4.078]	0.064
C[C@@H]1CCC[C@H]1N1CC[C@@H](NC(=O)c2cc(-c3ccc(F)cc3F)on2)[C@H](C(=O)N(C)C)C1 [Example 2.023]	0.037

SMILES	IC50 [µM]
CCOCCN(C)C(=O)[C@@H]1CN(C2CCCCC2)CC[C@H]1NC(=O)c1cc(-c2ccc(F)cc2F)on1 (racemic) [Example 1.019, rac-(3R*,4R*)-1-Cyclohexyl-4-{[5-(2,4-difluoro-phenyl)-isoxazole-3-carbonyl]-amino}-piperidine-3-carboxylic acid (2-ethoxy-ethyl)-methyl-amide]	0.145
O=C(N[C@H]1CCN(CC2CC2)C[C@@H]1C(=O)NC1(c2ccccc2O)CC1)c1cc(-c2ccc(F)cc2F)on1 [Example 4.076]	0.097
COc1ccccc1C(C)NC(=O)[C@H]1CN(CC2CC2)CC[C@@H]1NC(=O)c1cc(-c2ccc(F)cc2F)on1 (single isomer, unassigned) [Example 4.072a]	0.008
O=C(N[C@H]1CCN(CC2CC2)C[C@@H]1C(=O)NC1(c2ncccn2)CC1)c1cc(-c2ccc(Cl)cc2Cl)on1 (single isomer, unassigned) [Example 1.189a, (3S,4S)-1-Cyclopropylmethyl-4-{[5-(2,4-dichloro-phenyl)-isoxazole-3-carbonyl]-amino}-piperidine-3-carboxylic acid (1-pyrimidin-2-yl-cyclopropyl)-amide or (3R,4R)-1-Cyclopropylmethyl-4-{[5-(2,4-dichloro-phenyl)-isoxazole-3-carbonyl]-amino}-piperidine-3-carboxylic acid (1-pyrimidin-2-yl-cyclopropyl)-amide]	0.015
O=C(N[C@H]1CCN(CC2CC2)C[C@@H]1C(=O)NC1(c2cncnc2)CC1)c1cc(-c2ccc(F)cc2F)on1 [Example 4.081]	0.426
C[C@@H](NC(=O)[C@@H]1CN(CC2CC2)CC[C@H]1NC(=O)c1cc(-c2c(F)cc(F)cc2F)on1)C1CCC1 (single isomer, unassigned) [Example 1.139a, (3R*,4R*)-1-Cyclopropylmethyl-4-{[5-(2,4,6-trifluoro-phenyl)-isoxazole-3-carbonyl]-amino}-piperidine-3-carboxylic acid ((R)-1-cyclobutyl-ethyl)-amide]	0.79
O=C(N[C@H]1CCN(C2CSC2)C[C@@H]1C(=O)NC1(c2ncccn2)CC1)c1cc(-c2ccc(F)cc2F)on1 [Example 2.102]	0.411
CO[C@@H]1CCC[C@@H](N2CC[C@@H](NC(=O)c3cc(-c4ccc(F)cc4F)on3)[C@H](C(=O)N(C)C)C2)C1 [Example 2.032]	0.192
CN(C)C(=O)[C@@H]1CN(C2CCCCC2)CC[C@H]1NC(=O)c1ncc(-c2ccc(F)cc2F)o1 (racemic) [Example 3.018, rac-(3R*,4R*)-1-Cyclohexyl-4-{[5-(2,4-difluoro-phenyl)-oxazole-2-carbonyl]-amino}-piperidine-3-carboxylic acid dimethylamide]	0.198
O=C(N[C@H]1CCN(Cc2ccc(F)cc2)C[C@@H]1C(=O)NC1(c2ncccn2)CC1)c1cc(-c2ccc(F)cc2F)on1 [Example 2.068]	0.012
CN(CC1COC1)C(=O)[C@@H]1CN(C2CCCCC2)CC[C@H]1NC(=O)c1cc(-c2ccc(F)cc2F)on1 (racemic) [Example 1.039, rac-(3R*,4R*)-1-Cyclohexyl-4-{[5-(2,4-difluoro-phenyl)-isoxazole-3-carbonyl]-amino}-piperidine-3-carboxylic acid methyl-oxetan-3-ylmethyl-amide]	0.492
CC(C)(C#N)NC(=O)[C@@H]1CN(C2CCCCC2)CC[C@H]1NC(=O)c1cc(-c2ccc(F)cc2F)on1 (racemic) [Example 1.183, rac-(3R*,4R*)-1-Cyclohexyl-4-{[5-(2,4-difluoro-phenyl)-isoxazole-3-carbonyl]-amino}-piperidine-3-carboxylic acid (cyano-dimethyl-methyl)-amide]	0.079
O=C(N[C@H]1CCN(CC2CC2)C[C@@H]1C(=O)NC1(c2ncccn2)CC1)c1nnc(-c2ccc(F)cc2F)s1 [Example 7.016, (3S,4S)-1-Cyclopropylmethyl-4-{[5-(2,4-difluoro-phenyl)-[1,3,4]thiadiazole-2-carbonyl]-amino}-piperidine-3-carboxylic acid (1-pyrimidin-2-yl-cyclopropyl)-amide]	0.002
O=C(N[C@@H]1CCN(C2CCCCC2)C[C@H]1C(=O)N1CC(F)(F)C1)c1cc(-c2ccc(F)cc2F)on1 (racemic) [Example 1.052, rac-5-(2,4-Difluoro-phenyl)-isoxazole-3-carboxylic acid [(3R*,4R*)-1-cyclohexyl-3-(3,3-difluoro-azetidine-1-carbonyl)-piperidin-4-yl]-amide]	0.63
C[C@@H](NC(=O)[C@@H]1CN(C2CCCCC2)CC[C@H]1NC(=O)c1cc(-c2c(F)cc(F)cc2F)on1)c1ccccn1 (racemic) [Example 1.121, (3R*,4R*)-1-Cyclohexyl-4-{[5-(2,4,6-trifluoro-phenyl)-isoxazole-3-carbonyl]-amino}-piperidine-3-carboxylic acid ((R)-1-pyridin-2-yl-ethyl)-amide]	0.004
